# Organism: Rattus norvegicus
# Experiment: DrugMatrix - Regimen: Daily Repeat
# Type: toxicity, organism-based, Sprague-Dawley
# Parameters: regimen Daily Repeat, gender Male, age 6-8 weeks
# Conditions: in vivo, iv, vehicle 100 % SALINE; for ABSOLUTE BASOPHIL / ABSOLUTE EOSINOPHIL / ABSOLUTE LYMPHOCYTE / ABSOLUTE MONOCYTE / ABSOLUTE SEGMENTED NEUTROPHIL / BASOPHIL / EOSINOPHIL / ERYTHROCYTE COUNT / HEMATOCRIT / HEMOGLOBIN / LEUKOCYTE COUNT / LYMPHOCYTE / MEAN CORPUSCULAR HEMOGLOBIN / MEAN CORPUSCULAR HEMOGLOBIN CONCENTRATION / MEAN CORPUSCULAR VOLUME / MONOCYTE / NEUTROPHIL / NUCLEATED RED BLOOD CELLS / PLATELET COUNT: tissue Blood; for ALANINE AMINOTRANSFERASE / ALBUMIN / ALKALINE PHOSPHATASE / ASPARTATE AMINOTRANSFERASE / BLOOD UREA NITROGEN / CARBON DIOXIDE / CHLORIDE / CHOLESTEROL / CREATINE PHOSPHOKINASE / CREATININE / GLUCOSE / LACTATE DEHYDROGENASE / LIPASE / PHOSPHORUS / POTASSIUM / SODIUM / TOTAL BILIRUBIN / TOTAL PROTEIN / URIC ACID: tissue Plasma
# [1] = 3 mg/kg, 120 h, dose level Low, time 5 day
# [2] = 54 mg/kg, 72 h, dose level High, time 3 day
# [3] = 54 mg/kg, 120 h, dose level High, time 5 day
compound,measurement,setting,value
O=c1[nH]c(=O)n([C@H]2C[C@H](O)[C@@H](CO)O2)cc1F [FLOXURIDINE],ABSOLUTE BASOPHIL,[1],0 CELLS/uL
same,ABSOLUTE EOSINOPHIL,[1],0 CELLS/uL
same,ABSOLUTE LYMPHOCYTE,[1],11533 CELLS/uL
same,ABSOLUTE MONOCYTE,[1],174 CELLS/uL
same,ABSOLUTE SEGMENTED NEUTROPHIL,[1],693 CELLS/uL
same,BASOPHIL,[1],0%
same,EOSINOPHIL,[1],0%
same,ERYTHROCYTE COUNT,[1],5.61 x10E6/uL
same,HEMATOCRIT,[1],34.57%
same,HEMOGLOBIN,[1],13.83 G/DL
same,LEUKOCYTE COUNT,[1],12.4 x10E3/uL
same,LYMPHOCYTE,[1],93%
same,MEAN CORPUSCULAR HEMOGLOBIN,[1],24.7 pg
same,MEAN CORPUSCULAR HEMOGLOBIN CONCENTRATION,[1],40.03 G/DL
same,MEAN CORPUSCULAR VOLUME,[1],61.73 fL
same,MONOCYTE,[1],1.33%
same,NEUTROPHIL,[1],5.67%
same,NUCLEATED RED BLOOD CELLS,[1],0 /100WBC
same,PLATELET COUNT,[1],883.33 x10E3/uL
same,ALANINE AMINOTRANSFERASE,[1],53.33 u/L
same,ALBUMIN,[1],4.33 G/DL
same,ALKALINE PHOSPHATASE,[1],392.33 u/L
same,ASPARTATE AMINOTRANSFERASE,[1],95.67 u/L
same,BLOOD UREA NITROGEN,[1],18.67 mg/dL
same,CARBON DIOXIDE,[1],26.33 mmol/L
same,CHLORIDE,[1],102 MEQ/L
same,CHOLESTEROL,[1],64.67 mg/dL
same,CREATINE PHOSPHOKINASE,[1],328 u/L
same,CREATININE,[1],0.28 mg/dL
same,GLUCOSE,[1],167.33 mg/dL
same,LACTATE DEHYDROGENASE,[1],433.67 u/L
same,LIPASE,[1],10.33 u/L
same,PHOSPHORUS,[1],11.63 mg/dL
same,POTASSIUM,[1],6.75 MEQ/L
same,SODIUM,[1],142.7 MEQ/L
same,TOTAL BILIRUBIN,[1],0.23 mg/dL
same,TOTAL PROTEIN,[1],5.93 G/DL
same,URIC ACID,[1],1.83 mg/dL
same,ABSOLUTE BASOPHIL,[2],0 CELLS/uL
same,ABSOLUTE EOSINOPHIL,[2],0 CELLS/uL
same,ABSOLUTE LYMPHOCYTE,[2],10754.33 CELLS/uL
same,ABSOLUTE MONOCYTE,[2],75.67 CELLS/uL
same,ABSOLUTE SEGMENTED NEUTROPHIL,[2],703.33 CELLS/uL
same,BASOPHIL,[2],0%
same,EOSINOPHIL,[2],0%
same,ERYTHROCYTE COUNT,[2],5.48 x10E6/uL
same,HEMATOCRIT,[2],33.43%
same,HEMOGLOBIN,[2],13.3 G/DL
same,LEUKOCYTE COUNT,[2],11.53 x10E3/uL
same,LYMPHOCYTE,[2],93.33%
same,MEAN CORPUSCULAR HEMOGLOBIN,[2],24.33 pg
same,MEAN CORPUSCULAR HEMOGLOBIN CONCENTRATION,[2],39.83 G/DL
same,MEAN CORPUSCULAR VOLUME,[2],61.17 fL
same,MONOCYTE,[2],0.67%
same,NEUTROPHIL,[2],6%
same,NUCLEATED RED BLOOD CELLS,[2],0 /100WBC
same,PLATELET COUNT,[2],1073.67 x10E3/uL
same,ALANINE AMINOTRANSFERASE,[2],48.33 u/L
same,ALBUMIN,[2],4.13 G/DL
same,ALKALINE PHOSPHATASE,[2],268 u/L
same,ASPARTATE AMINOTRANSFERASE,[2],81.67 u/L
same,BLOOD UREA NITROGEN,[2],19 mg/dL
same,CARBON DIOXIDE,[2],28.67 mmol/L
same,CHLORIDE,[2],103.33 MEQ/L
same,CHOLESTEROL,[2],68.33 mg/dL
same,CREATINE PHOSPHOKINASE,[2],307.67 u/L
same,CREATININE,[2],0.18 mg/dL
same,GLUCOSE,[2],150.67 mg/dL
same,LACTATE DEHYDROGENASE,[2],152.33 u/L
same,LIPASE,[2],10.33 u/L
same,PHOSPHORUS,[2],9.83 mg/dL
same,POTASSIUM,[2],5.66 MEQ/L
same,SODIUM,[2],141.27 MEQ/L
same,TOTAL BILIRUBIN,[2],0.2 mg/dL
same,TOTAL PROTEIN,[2],5.67 G/DL
same,URIC ACID,[2],1.2 mg/dL
same,ABSOLUTE BASOPHIL,[3],0 CELLS/uL
same,ABSOLUTE EOSINOPHIL,[3],0 CELLS/uL
same,ABSOLUTE LYMPHOCYTE,[3],10553 CELLS/uL
same,ABSOLUTE MONOCYTE,[3],101.33 CELLS/uL
same,ABSOLUTE SEGMENTED NEUTROPHIL,[3],445.67 CELLS/uL
same,BASOPHIL,[3],0%
same,EOSINOPHIL,[3],0%
same,ERYTHROCYTE COUNT,[3],4.83 x10E6/uL
same,HEMATOCRIT,[3],31%
same,HEMOGLOBIN,[3],12.7 G/DL
same,LEUKOCYTE COUNT,[3],11.1 x10E3/uL
same,LYMPHOCYTE,[3],95%
same,MEAN CORPUSCULAR HEMOGLOBIN,[3],26.57 pg
same,MEAN CORPUSCULAR HEMOGLOBIN CONCENTRATION,[3],41.07 G/DL
same,MEAN CORPUSCULAR VOLUME,[3],64.57 fL
same,MONOCYTE,[3],1%
same,NEUTROPHIL,[3],4%
same,NUCLEATED RED BLOOD CELLS,[3],0 /100WBC
same,PLATELET COUNT,[3],1207.33 x10E3/uL
same,ALANINE AMINOTRANSFERASE,[3],45 u/L
same,ALBUMIN,[3],4.17 G/DL
same,ALKALINE PHOSPHATASE,[3],347 u/L
same,ASPARTATE AMINOTRANSFERASE,[3],84 u/L
same,BLOOD UREA NITROGEN,[3],17.67 mg/dL
same,CARBON DIOXIDE,[3],26.67 mmol/L
same,CHLORIDE,[3],102.33 MEQ/L
same,CHOLESTEROL,[3],52.67 mg/dL
same,CREATINE PHOSPHOKINASE,[3],429.33 u/L
same,CREATININE,[3],0.12 mg/dL
same,GLUCOSE,[3],154 mg/dL
same,LACTATE DEHYDROGENASE,[3],306 u/L
same,LIPASE,[3],9.33 u/L
same,PHOSPHORUS,[3],9.83 mg/dL
same,POTASSIUM,[3],5.61 MEQ/L
same,SODIUM,[3],142.1 MEQ/L
same,TOTAL BILIRUBIN,[3],0.17 mg/dL
same,TOTAL PROTEIN,[3],5.53 G/DL
same,URIC ACID,[3],1.5 mg/dL

# Reference: ChEMBL document CHEMBL3885881, “DrugMatrix”
